The results in this text go back to PubChem BioAssay AID1259407 (Chemical Carcinogenesis Research Information System (CCRIS), 2018).

The data set has as its system CCRIS mutagenicity, Ames/micronucleus/aberration tests. The data set can be described thus: CCRIS mutagenicity studies. The text has this: The CCRIS database contains chemical records with carcinogenicity, mutagenicity, tumor promotion, and tumor inhibition test results. It was developed by the National Cancer Institute (NCI). Data are derived from studies cited in primary journals, current awareness tools, NCI reports, and other sources. Test results have been reviewed by experts in carcinogenesis and mutagenesis.
CCRIS provides historical information from the years 1985 - 2011. It is no longer updated.
This is an archive assay for CCRIS mutagenicity studies.

Where [1] appears, read: Test System: AMES SALMONELLA TYPHIMURIUM, Strain/Indicator: TA97, Metabolic Activation: HAMSTER, LIVER, S-9, AROCLOR 1254 (10%), Method: PREINCUBATION
Where [2] appears, read: Test System: AMES SALMONELLA TYPHIMURIUM, Strain/Indicator: TA97, Metabolic Activation: NONE, Method: PREINCUBATION
Setting [3] is: Test System: AMES SALMONELLA TYPHIMURIUM, Strain/Indicator: TA97, Metabolic Activation: RAT, LIVER, S-9, AROCLOR 1254 (10%), Method: PREINCUBATION
[4] abbreviates: Test System: AMES SALMONELLA TYPHIMURIUM, Strain/Indicator: TA98, Metabolic Activation: HAMSTER, LIVER, S-9, AROCLOR 1254 (10%), Method: PREINCUBATION
The mark [5] stands for this setting: Test System: AMES SALMONELLA TYPHIMURIUM, Strain/Indicator: TA98, Metabolic Activation: RAT, LIVER, S-9, AROCLOR 1254 (10%), Method: PREINCUBATION
Setting [6] is: Test System: AMES SALMONELLA TYPHIMURIUM, Strain/Indicator: TA100, Metabolic Activation: HAMSTER, LIVER, S-9, AROCLOR 1254 (10%), Method: PREINCUBATION
[7] abbreviates: Test System: AMES SALMONELLA TYPHIMURIUM, Strain/Indicator: TA100, Metabolic Activation: RAT, LIVER, S-9, AROCLOR 1254 (10%), Method: PREINCUBATION
[8] abbreviates: Test System: AMES SALMONELLA TYPHIMURIUM, Strain/Indicator: TA1535, Metabolic Activation: HAMSTER, LIVER, S-9, AROCLOR 1254 (10%), Method: PREINCUBATION
The mark [9] stands for this setting: Test System: AMES SALMONELLA TYPHIMURIUM, Strain/Indicator: TA1535, Metabolic Activation: NONE, Method: PREINCUBATION
Where [10] appears, read: Test System: AMES SALMONELLA TYPHIMURIUM, Strain/Indicator: TA1535, Metabolic Activation: RAT, LIVER, S-9, AROCLOR 1254 (10%), Method: PREINCUBATION

Calls of active or inactive are those of the source. No rule for the calls is given here.

Consider `CCC(=C(CC)c1ccc(O)cc1)c1ccc(O)cc1`, for which the mutagenic call (End Point: IN VITRO MICRONUCLEUS, Test System: CHL/IU CELLS, Metabolic Activation: NONE) is “active; positive”.
In the case of `Cc1ccc(-c2nc3ccccc3o2)cc1`, the mutagenic call is “inactive; negative” (Test System: AMES SALMONELLA TYPHIMURIUM, Strain/Indicator: TA98, Metabolic Activation: NONE, Method: STANDARD PLATE) and “inactive; negative” (Test System: AMES SALMONELLA TYPHIMURIUM, Strain/Indicator: TA98, Metabolic Activation: S-9, Method: STANDARD PLATE).
Turning to `O=C(O)c1c(Cl)c(Cl)c(Cl)c(Cl)c1-c1c2cc(I)c(=O)c(I)c-2oc2c(I)c(O)c(I)cc12`, the mutagenic call (End Point: IN VIVO MICRONUCLEUS, Test System: BONE MARROW POLYCHROMATIC ERYTHROCYTES, Species: MOUSE, Strain/Sex: DDY/MALE, Route: IP) was “inactive; negative”.
On to `CN(C)/N=N/c1nc[nH]c1C(N)=O`, for which the mutagenic call (Test System: AMES SALMONELLA TYPHIMURIUM, Strain/Indicator: G46, Metabolic Activation: NONE, Method: STANDARD PLATE) is “inactive; negative”; the mutagenic call (Test System: AMES SALMONELLA TYPHIMURIUM, Strain/Indicator: G46, Metabolic Activation: RAT, LIVER, S-9, PHENOBARBITAL, Method: STANDARD PLATE) is “active; positive”; the mutagenic call (Test System: AMES SALMONELLA TYPHIMURIUM, Strain/Indicator: TA92, Metabolic Activation: NONE, Method: STANDARD PLATE) was “active; positive”; the mutagenic call (Test System: AMES SALMONELLA TYPHIMURIUM, Strain/Indicator: TA92, Metabolic Activation: RAT, LIVER, S-9, PHENOBARBITAL, Method: STANDARD PLATE) was “active; positive”; the mutagenic call under setting [1] is “active; positive”; the mutagenic call under setting [2] is “active; positive”. For the same compound, the mutagenic call is, setting by setting: under setting [3], “active; positive”; under setting [4], “active; positive”; under setting [5], “active; positive”; (Test System: AMES SALMONELLA TYPHIMURIUM, Strain/Indicator: TA98, Metabolic Activation: S-9, Method: PREINCUBATION) “inactive; negative”; under setting [6], “active; positive”; (Test System: AMES SALMONELLA TYPHIMURIUM, Strain/Indicator: TA100, Metabolic Activation: NONE, Method: STANDARD PLATE) “active; positive”. The mutagenic call is “active; positive” under setting [7]; “active; positive” (Test System: AMES SALMONELLA TYPHIMURIUM, Strain/Indicator: TA100, Metabolic Activation: RAT, LIVER, S-9, PHENOBARBITAL, Method: STANDARD PLATE); “inactive; negative” (Test System: AMES SALMONELLA TYPHIMURIUM, Strain/Indicator: TA100, Metabolic Activation: S-9, Method: PREINCUBATION); “active; positive” under setting [8]; “inactive; negative” under setting [9]; “active; positive” under setting [10]. Moreover, the mutagenic call (Test System: E. COLI, Strain/Indicator: TM6, Metabolic Activation: NONE, Method: STANDARD PLATE) was “active; positive”; the mutagenic call (Test System: E. COLI, Strain/Indicator: TM6, Metabolic Activation: RAT, LIVER, S-9, PHENOBARBITAL, Method: STANDARD PLATE) was “active; positive”; the mutagenic call (Test System: E. COLI, Strain/Indicator: TM9, Metabolic Activation: NONE, Method: STANDARD PLATE) is “active; positive”; the mutagenic call (Test System: E. COLI, Strain/Indicator: TM9, Metabolic Activation: RAT, LIVER, S-9, PHENOBARBITAL, Method: STANDARD PLATE) is “active; positive”; the mutagenic call (Test System: E. COLI, Strain/Indicator: WP2, Metabolic Activation: NONE, Method: STANDARD PLATE) is “active; positive”; the mutagenic call (Test System: E. COLI, Strain/Indicator: WP2, Metabolic Activation: RAT, LIVER, S-9, PHENOBARBITAL, Method: STANDARD PLATE) is “active; positive”. Further, the mutagenic call runs as follows: (Test System: E. COLI, Strain/Indicator: WP2 UVRA, Metabolic Activation: NONE, Method: STANDARD PLATE) “active; positive”; (Test System: E. COLI, Strain/Indicator: WP2 UVRA, Metabolic Activation: RAT, LIVER, S-9, PHENOBARBITAL, Method: STANDARD PLATE) “active; positive”.
As for `O=C1CC2=C(CCCC2)c2c1c1c(c3c2=CC=C3)C=CC=1`, the mutagenic call (Test System: AMES SALMONELLA TYPHIMURIUM, Strain/Indicator: TA100, Metabolic Activation: RAT, LIVER, S-9, AROCLOR 1254, Method: STANDARD PLATE) is “inactive; negative”.
For the compound `CCc1cc(C(N)=S)ccn1`, the mutagenic call reads like this: (End Point: IN VITRO CHROMOSOMAL ABERRATIONS, Test System: CHO CELLS, Metabolic Activation: NONE) “inactive; negative; significant increase at 7 mm attributed to precipitation”; under setting [1], “inactive; negative”; (Test System: AMES SALMONELLA TYPHIMURIUM, Strain/Indicator: TA97, Metabolic Activation: HAMSTER, LIVER, S-9, AROCLOR 1254 (30%), Method: PREINCUBATION) “inactive; negative”; under setting [2], “inactive; negative”; under setting [3], “inactive; negative”; (Test System: AMES SALMONELLA TYPHIMURIUM, Strain/Indicator: TA97, Metabolic Activation: RAT, LIVER, S-9, AROCLOR 1254 (30%), Method: PREINCUBATION) “inactive; negative”. Besides, the mutagenic call under setting [4] is “inactive; negative”; the mutagenic call (Test System: AMES SALMONELLA TYPHIMURIUM, Strain/Indicator: TA98, Metabolic Activation: HAMSTER, LIVER, S-9, AROCLOR 1254 (30%), Method: PREINCUBATION) was “inactive; negative”; the mutagenic call (Test System: AMES SALMONELLA TYPHIMURIUM, Strain/Indicator: TA98, Metabolic Activation: NONE, Method: PREINCUBATION) is “inactive; negative”; the mutagenic call under setting [5] was “inactive; negative”; the mutagenic call (Test System: AMES SALMONELLA TYPHIMURIUM, Strain/Indicator: TA98, Metabolic Activation: RAT, LIVER, S-9, AROCLOR 1254 (30%), Method: PREINCUBATION) was “inactive; negative”; the mutagenic call under setting [6] is “inactive; negative”. Also, the mutagenic call runs as follows: (Test System: AMES SALMONELLA TYPHIMURIUM, Strain/Indicator: TA100, Metabolic Activation: HAMSTER, LIVER, S-9, AROCLOR 1254 (30%), Method: PREINCUBATION) “inactive; negative”; (Test System: AMES SALMONELLA TYPHIMURIUM, Strain/Indicator: TA100, Metabolic Activation: NONE, Method: PREINCUBATION) “inactive; negative”; under setting [7], “inactive; negative”; (Test System: AMES SALMONELLA TYPHIMURIUM, Strain/Indicator: TA100, Metabolic Activation: RAT, LIVER, S-9, AROCLOR 1254 (30%), Method: PREINCUBATION) “inactive; negative”; under setting [8], “inactive; negative”; (Test System: AMES SALMONELLA TYPHIMURIUM, Strain/Indicator: TA1535, Metabolic Activation: HAMSTER, LIVER, S-9, AROCLOR 1254 (30%), Method: PREINCUBATION) “inactive; negative”. The mutagenic call runs as follows: under setting [9], “inactive; negative”; under setting [10], “inactive; negative”; (Test System: AMES SALMONELLA TYPHIMURIUM, Strain/Indicator: TA1535, Metabolic Activation: RAT, LIVER, S-9, AROCLOR 1254 (30%), Method: PREINCUBATION) “inactive; negative”.
